IC50 data for 17 compounds are collected here from patent US8476264B2, “N-(3-(2-amino-6,6-difluoro-4,4A,5,6,7,7A-hexahydro-cyclopenta[E][1,3]oxazin-4-yl)-phenylamides as BACE1 inhibitors” (Hoffmann-La Roche Inc., priority 2011, dated 2013).

T1 sequence (P56817 46-501): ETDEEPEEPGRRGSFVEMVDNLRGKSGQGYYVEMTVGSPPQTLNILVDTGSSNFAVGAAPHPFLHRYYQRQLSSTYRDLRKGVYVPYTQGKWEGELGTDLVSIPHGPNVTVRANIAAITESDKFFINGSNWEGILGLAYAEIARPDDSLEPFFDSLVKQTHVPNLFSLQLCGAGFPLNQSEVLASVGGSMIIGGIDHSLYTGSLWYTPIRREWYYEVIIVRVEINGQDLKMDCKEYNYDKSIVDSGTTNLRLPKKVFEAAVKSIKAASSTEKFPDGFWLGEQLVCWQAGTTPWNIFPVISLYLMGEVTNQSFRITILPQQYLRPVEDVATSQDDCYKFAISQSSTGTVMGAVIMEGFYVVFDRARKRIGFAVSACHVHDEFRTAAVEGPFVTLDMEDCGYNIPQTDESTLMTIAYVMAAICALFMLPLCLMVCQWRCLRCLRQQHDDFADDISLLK

The assay has as its target T1, BACE1 (Homo sapiens, UniProt P56817).
T1 construct: Human HEK293 cells which are stably transfected with a vector expressing a cDNA of the human APP wt gene (APP695); endogenous in cells; host or cells: HEK293 stably transfected with human APP695 wt
The assay is described as follows: Cellular Aβ-lowering assay (Aβ40 ELISA). To be noted: HEK293 cells stably expressing human APP wt (APP695); Aβ40 in supernatant after 18-20 hrs; read-out: BACE1 cell act. Aβ40 IC50. Format: cell-based. Here is the method: Cellular Aβ-Lowering Assay:
Human HEK293 cells which are stably transfected with a vector expressing a cDNA of the human APP wt gene (APP695) were used to assess the potency of the compounds in a cellular assay. The cells were seeded in 96-well microtiter plates in cell culture medium (Iscove, plus 10% (v/v) fetal bovine serum, glutamine, penicillin/streptomycin) to about 80% confluence and the compounds were added at a 10× concentration in 1/10 volume of medium without FCS containing 8% DMSO (final concentration of DMSO was kept at 0.8% v/v). After 18-20 hrs incubation at 37° C. and 5% CO2 in a humidified incubator the culture supernatant was harvested for the determination of Aβ40 concentrations. 96 well ELISA plates (e.g., Nunc MaxiSorb) were coated with monoclonal antibody which specifically recognize the C-terminal end of Aβ40 (Brockhaus et al., NeuroReport 9, 1481-1486; 1998). After blocking of non-specific binding sites with e.g. 1% BSA and washing, the culture supernatants were added in suitable dilutions together with a horseradish peroxidase-coupled Aβ detection antibody (e.g., antibody 4G8, Senetek, Maryland Heights, Mo.) and incubated for 5 to 7 hrs. Subsequently the wells of the microtiter plate were washed extensively with Tris-buffered saline containing 0.05% Tween 20 and the assay was developed with tetramethylbenzidine/H2O2 in citric acid buffer. After stopping the reaction with one volume 1 N H2SO4 the reaction was measured in an ELISA reader at 450 nm wavelength. The concentrations of Aβ in the culture supernatants were calculated from a standard curve obtained with known amounts of pure Aβ peptide.
(An ELISA detects its analyte on a solid surface through an enzyme-linked reagent.)
Consider `NC1=N[C@](CF)(c2cc(NC(=O)c3cnc(C(F)(F)F)cn3)ccc2F)[C@H]2CC(F)(F)C[C@H]2O1` [Example 28, 5-Trifluoromethyl-pyrazine-2-carboxylic acid [(S)-3-((1R,2R)-2-amino-6,6-difluoro-4-fluoromethyl-4,4a,5,6,7,7a-hexahydro-cyclopenta[e][1,3]oxazin-4-yl)-4-fluoro-phenyl]-amide], for which the IC50 worked out at 16 nM.
On to `CC(F)(F)c1cnc(C(=O)Nc2ccc(F)c([C@@]3(CF)N=C(N)O[C@@H]4CC(F)(F)C[C@@H]43)c2)cn1` [Example 29, 5-(1,1-Difluoro-ethyl)-pyrazine-2-carboxylic acid [(S)-3-((1R,2R)-2-amino-6,6-difluoro-4-fluoromethyl-4,4a,5,6,7,7a-hexahydro-cyclopenta[e][1,3]oxazin-4-yl)-4-fluoro-phenyl]-amide], for which the IC50 was found to be 36 nM.
To `COc1cnc(C(=O)Nc2ccc(F)c([C@@]3(CF)N=C(N)O[C@@H]4CC(F)(F)C[C@@H]43)c2)cn1` [Example 30, 5-Methoxy-pyrazine-2-carboxylic acid [(S)-3-((1R,2R)-2-amino-6,6-difluoro-4-fluoromethyl-4,4a,5,6,7,7a-hexahydro-cyclopenta[e][1,3]oxazin-4-yl)-4-fluoro-phenyl]-amide] belongs 7.6 nM.
As for `NC1=N[C@](CF)(c2cc(NC(=O)c3ncc(C(F)(F)F)cn3)ccc2F)[C@H]2CC(F)(F)C[C@H]2O1` [Example 31, 5-Trifluoromethyl-pyrimidine-2-carboxylic acid [(S)-3-((1R,2R)-2-amino-6,6-difluoro-4-fluoromethyl-4,4a,5,6,7,7a-hexahydro-cyclopenta[e][1,3]oxazin-4-yl)-4-fluoro-phenyl]-amide], the IC50 came to 36 nM.
Take `NC1=N[C@](CF)(c2cc(NC(=O)c3ncc(Cl)cn3)ccc2F)[C@H]2CC(F)(F)C[C@H]2O1` [Example 32, 5-Chloro-pyrimidine-2-carboxylic acid [(S)-3-((1R,2R)-2-amino-6,6-difluoro-4-fluoromethyl-4,4a,5,6,7,7a-hexahydro-cyclopenta[e][1,3]oxazin-4-yl)-4-fluoro-phenyl]-amide]: the IC50 turned out to be 7.9 nM.
For `Cc1nc(C(=O)Nc2ccc(F)c([C@@]3(CF)N=C(N)O[C@@H]4CC(F)(F)C[C@@H]43)c2)co1` [Example 33, 2-Methyl-oxazole-4-carboxylic acid [(S)-3-((1R,2R)-2-amino-6,6-difluoro-4-fluoromethyl-4,4a,5,6,7,7a-hexahydro-cyclopenta[e][1,3]oxazin-4-yl)-4-fluoro-phenyl]-amide], the IC50 was determined as 4.8 nM.
For the compound `NC1=N[C@](CF)(c2cc(NC(=O)c3nn(C(F)F)cc3Cl)ccc2F)[C@H]2CC(F)(F)C[C@H]2O1` [Example 35, 4-Chloro-1-difluoromethyl-1H-pyrazole-3-carboxylic acid [(S)-3-((1R,2R)-2-amino-6,6-difluoro-4-fluoromethyl-4,4a,5,6,7,7a-hexahydro-cyclopenta[e][1,3]oxazin-4-yl)-4-fluoro-phenyl]-amide], the IC50 was found to be 3 nM.
For `NC1=N[C@@](c2cc(NC(=O)c3ccc(Cl)cn3)ccc2F)(C(F)F)[C@H]2CC(F)(F)C[C@H]2O1` [Example 37, 5-Chloro-pyridine-2-carboxylic acid [(S)-3-((1R,2R)-2-amino-4-difluoromethyl-6,6-difluoro-4,4a,5,6,7,7a-hexahydro-cyclopenta[e][1,3]oxazin-4-yl)-4-fluoro-phenyl]-amide], the IC50 was found to be 17 nM.
`NC1=N[C@@](c2cc(NC(=O)c3cnc(OCF)cn3)ccc2F)(C(F)F)[C@H]2CC(F)(F)C[C@H]2O1` [Example 38, 5-Fluoromethoxy-pyrazine-2-carboxylic acid [(S)-3-((1R,2R)-2-amino-4-difluoromethyl-6,6-difluoro-4,4a,5,6,7,7a-hexahydro-cyclopenta[e][1,3]oxazin-4-yl)-4-fluoro-phenyl]-amide]: the IC50 worked out at 17 nM.
Consider `NC1=N[C@@](c2cc(NC(=O)c3cnc(Cl)cn3)ccc2F)(C(F)F)[C@H]2CC(F)(F)C[C@H]2O1` [Example 39, 5-Chloro-pyrazine-2-carboxylic acid [(S)-3-((1R,2R)-2-amino-4-difluoromethyl-6,6-difluoro-4,4a,5,6,7,7a-hexahydro-cyclopenta[e][1,3]oxazin-4-yl)-4-fluoro-phenyl]-amide], for which the IC50 came out at 1400 nM.
As to `NC1=N[C@@](c2cc(NC(=O)c3cnc(C(F)F)cn3)ccc2F)(C(F)F)[C@H]2CC(F)(F)C[C@H]2O1` [Example 40, 5-Difluoromethyl-pyrazine-2-carboxylic acid [(S)-3-((1R,2R)-2-amino-4-difluoromethyl-6,6-difluoro-4,4a,5,6,7,7a-hexahydro-cyclopenta[e][1,3]oxazin-4-yl)-4-fluoro-phenyl]-amide], the IC50 was determined as 44 nM.
For the compound `NC1=N[C@@](c2cc(NC(=O)c3cnc(OC(F)F)cn3)ccc2F)(C(F)F)[C@H]2CC(F)(F)C[C@H]2O1` [Example 41, 5-Difluoromethoxy-pyrazine-2-carboxylic acid [(S)-3-((1R,2R)-2-amino-4-difluoromethyl-6,6-difluoro-4,4a,5,6,7,7a-hexahydro-cyclopenta[e][1,3]oxazin-4-yl)-4-fluoro-phenyl]-amide], the IC50 was 7 nM.
Take `NC1=N[C@@](c2cc(NC(=O)c3nn(C(F)F)cc3Cl)ccc2F)(C(F)F)[C@H]2CC(F)(F)C[C@H]2O1` [Example 43, 4-Chloro-1-difluoromethyl-1H-pyrazole-3-carboxylic acid [(S)-3-((1R,2R)-2-amino-4-difluoromethyl-6,6-difluoro-4,4a,5,6,7,7a-hexahydro-cyclopenta[e][1,3]oxazin-4-yl)-4-fluoro-phenyl]-amide]: the IC50 was determined as 5.5 nM.
On to `Cc1nc(C(=O)Nc2ccc(F)c([C@@]3(C(F)F)N=C(N)O[C@@H]4CC(F)(F)C[C@@H]43)c2)co1` [Example 44, 2-Methyl-oxazole-4-carboxylic acid [(S)-3-((1R,2R)-2-amino-4-difluoromethyl-6,6-difluoro-4,4a,5,6,7,7a-hexahydro-cyclopenta[e][1,3]oxazin-4-yl)-4-fluoro-phenyl]-amide], for which the IC50 worked out at 42 nM.
For the compound `N#Cc1ccc(C(=O)Nc2ccc(F)c([C@]3(CF)N=C(N)O[C@@]4(CF)CC(F)(F)C[C@H]43)c2)nc1` [Example 45, 5-Cyano-pyridine-2-carboxylic acid [3-((1S,7aS)-2-(R)-amino-6,6-difluoro-4,7a-bis-fluoromethyl-4,4a,5,6,7,7a-hexahydro-cyclopenta[e][1,3]oxazin-4-yl)-4-fluoro-phenyl]-amide], the IC50 worked out at 11100 nM.
For the compound `N#Cc1ccc(C(=O)Nc2ccc(F)c([C@@]3(CF)N=C(N)O[C@]4(CF)CC(F)(F)C[C@@H]43)c2)nc1` [Example 46, 5-Cyano-pyridine-2-carboxylic acid [3-((1R,7aR)-2-(S)-amino-6,6-difluoro-4,7a-bis-fluoromethyl-4,4a,5,6,7,7a-hexahydro-cyclopenta[e][1,3]oxazin-4-yl)-4-fluoro-phenyl]-amide], the IC50 was found to be 27 nM.
For `NC1=N[C@](CF)(c2cc(NC(=O)c3ccc(Cl)cn3)ccc2F)[C@H]2CC(F)(F)C[C@@]2(CF)O1` [Example 47, 5-Chloro-pyridine-2-carboxylic acid [3-((1R,7aR)-2-(S)-amino-6,6-difluoro-4,7a-bis-fluoromethyl-4,4a,5,6,7,7a-hexahydro-cyclopenta[e][1,3]oxazin-4-yl)-4-fluoro-phenyl]-amide], the IC50 was 85 nM.

Broadly, the IC50 is the concentration needed to halve the response being measured.
